Measured values from the RepoRT retention time repository (doi:10.1016/j.aca.2011.12.065).
Counter-ions that a name gives are not always drawn.

Key:
[1] = RP, Waters ACQUITY UPLC BEH C18, 100 × 2.1 mm, 1.7 µm; A: water + 0.1% formic acid, pH 3; B: 80% acetonitrile + 20% acetone + 0.1% formic acid, pH 3; gradient (min/%B) 0/0 6/100; conditions: stereoisomer not certain
[2] = RP, Waters ACQUITY UPLC HSS T3, 100 × 2.1 mm, 1.8 µm; A: water + 0.1% formic acid, pH 3; B: 30% methanol + 70% acetonitrile + 0.1% formic acid, pH 3; gradient (min/%B) 0.0/5 1.0/8 2.0/15 3.0/40 4.0/70 4.5/100 5.0/100 6.4/100 6.6/5.0 6.8/5.0 7.0/5.0; conditions: stereoisomer not certain

| LC retention time [1] [min] | LC retention time [2] [min] | SMILES |
| --- | --- | --- |
| 0.576 | 0.468 | NCCS(=O)O [hypotaurine] |
| 0.603 | 0.491 | NC(CS)C(=O)O (stereo not drawn) [l-cysteine] |
| 4.27 | 4.6 | CCCCCCCCCCCC(=O)N(C)CC(=O)O [n-lauroylsarcosine] |
| 0.676 | 0.527 | NC(CCCCNC(=O)CO)C(=O)O (stereo not drawn) [GALA ((2s)-2-amino-6-(2-hydroxy-acetylamino)-hexanoic acid)] |
| 1.37 | 1.54 | CC(O)C1NC(=O)C2CCCN2C1=O (stereo not drawn) [Cyclic(pro-thr)] |
| 2.85 | 4.26 | CC(CCC(=O)NCCS(=O)(=O)O)C1CCC2C3C(O)CC4CC(O)CCC4(C)C3CC(O)C12C (stereo not drawn) [Taurocholic acid] |
| 1.91 | 3.3 | O=Cc1ccc(O)cc1 [4-hydroxybenzaldehyde] |
| 1.17 | 0.688 | Cn1c[n+](C2OC(CO)C(O)C2O)c2nc(N)[nH]c(=O)c21 (stereo not drawn) [7-methylguanosine] |
| 0.836 | 0.731 | O=C1CCC(C(=O)O)N1 (stereo not drawn) [Pyroglutamic acid] |
| 1.43 | 2.02 | O=C1CCC(C(=O)N2CCCC2C(=O)O)N1 (stereo not drawn) [pglu-pro] |
| 2.58 | 3.79 | CSCCC(NC(=O)Cc1ccccc1)C(=O)O (stereo not drawn) [N-phenylacetyl-methionine] |
| 1.27 | 0.539 | CC(C(=O)O)C(=O)O [Methylmalonic acid] |
| 1.7 | 2.92 | OCC1OC(Oc2c[nH]c3ccccc23)C(O)C(O)C1O (stereo not drawn) [indoxyl beta-d-glucoside] |
| 2.26 | 3.63 | O=C(O)CCCCCCCC(=O)O [Azelaic acid] |
| 1.5 | 2.33 | O=C(O)CCCCC(=O)O [Adipic acid] |
| 0.986 | 0.619 | Nc1ccn(C2OC(CO)C(O)C2O)c(=S)n1 (stereo not drawn) [2-thiocytidine dihydrate] |
| 0.574 | 0.468 | CNCC(=O)O [sarcosine] |
| 1.26 | 1.18 | Nc1nc2c(ncn2C2OC(CO)C(O)C2O)c(=O)[nH]1 (stereo not drawn) [guanosine] |
| 0.685 | 0.538 | Nc1ncnc2nc[nH]c12 [Adenine] |
| 1.53 | 2.68 | CC(=O)NC(Cc1ccc(O)cc1)C(=O)O (stereo not drawn) [n-acetyl-l-tyrosine] |
| 1.72 | 3.17 | O=C(O)CCCCCC(=O)O [Pimelic acid] |
| 0.577 | 0.475 | NC(CCC(=O)O)C(=O)O (stereo not drawn) [glutamic acid] |
| 0.577 | 0.479 | O=C(O)C1CC(O)CN1 (stereo not drawn) [trans-4-hydroxy-l-proline] |
| 0.543 | 0.44 | NC(CCCC(N)C(=O)O)C(=O)O (stereo not drawn) [2,6-diaminopimelic acid] |
| 1.68 | 2.86 | O=C(O)c1ccc2ccccc2n1 [quinaldic acid] |
| 4 | 4.51 | CC(C)c1cc2c(c(O)c1O)C13CCCC(C)(C)C1CC2OC3=O (stereo not drawn) [carnosol] |
| 1.39 | 1.69 | O=C1CCCCN1 [delta-valerolactam] |

| LC retention time [1] [min] | LC retention time [2] [min] | SMILES |
| --- | --- | --- |
| 4.5 | 4.72 | CCCCCCCCC=CCCCCCCCC(=O)OCC(O)COP(=O)([O-])OCC[N+](C)(C)C (stereo not drawn) [lysoPC(18:1(9Z)/0:0)] |
| 1.03 | 0.786 | Nc1c(O)cccc1C(=O)CC(N)C(=O)O (racemic) [3-hydroxy-dl-kynurenine] |
| 0.531 | 0.425 | Cn1cnc(C[C@H](N)C(=O)O)c1 [1-Methyl-L-Histidine] |
| 2.98 | 4.05 | CC(CCC(=O)O)C1CCC2C3C(=O)CC4CC(=O)CCC4(C)C3CC(=O)C12C (stereo not drawn) [dehydrocholic acid] |
| 1.81 | 3.4 | COc1cc2c(CCNC(C)=O)c[nH]c2cc1O [6-hydroxymelatonin] |
| 0.752 | 0.628 | O=c1cc[nH]c(=O)[nH]1 [Uracil] |
| 0.986 | 0.619 | Cn1c(=N)ccn(C2OC(CO)C(O)C2O)c1=O (stereo not drawn) [3-methylcytidine methosulfate] |
| 1.28 | 0.863 | CC(=O)NC(CC(=O)O)C(=O)NC(CCC(=O)O)C(=O)O (stereo not drawn) [n-acetyl-asp-glu] |
| 1.43 | 2.31 | NC(CCCCn1c(C=O)ccc1CO)C(=O)O (stereo not drawn) [pyrraline] |
| 0.785 | 0.659 | O=C(O)CC(O)(CC(=O)O)C(=O)O [Citric acid] |
| 0.676 | 0.527 | NC(CCCCNCC(=O)O)C(=O)O (stereo not drawn) [cml] |
| 1.28 | 1.45 | Cn1c(=O)[nH]c(=O)c2[nH]cnc21 [3-methylxanthine] |
| 3.38 | 4.2 | CCCCCCCCCCCC(=O)OC(CC(=O)[O-])C[N+](C)(C)C (stereo not drawn) [lauroyl l-carnitine] |
| 0.574 | 0.475 | CC(O)C(N)C(=O)O (stereo not drawn) [Threonine] |
|  | 2.61 | O=C(O)c1ccc[nH]1 [pyrrole-2-carboxylic acid] |
| 0.752 | 0.618 | O=c1[nH]c(=O)c2[nH]c(=O)[nH]c2[nH]1 [Uric acid] |
| 3.92 | 4.47 | COC1=C(OC)C(=O)C(CC=C(C)C)=C(C)C1=O [coenzyme q1] |
| 0.657 | 0.51 | NC(CCCC(=O)O)C(=O)O (racemic) [dl-2-aminoadipic acid] |
|  | 0.441 | Cn1cncc1CC(NC(=O)CCN)C(=O)O (stereo not drawn) [anserine] |
| 0.661 | 0.504 | OCC1OC(OC2(CO)OC(CO)C(O)C2O)C(O)C(O)C1O (stereo not drawn) [sucrose] |
|  | 3.69 | COc1ccc(O)c(C(=O)O)c1 [2-hydroxy-5-methoxylbenzoic acid] |
|  | 3.24 | CC(=O)NC(CSC(=S)NCCCCS(C)=O)C(=O)O (stereo not drawn) [sulforaphane-n-acetylcysteine] |
|  | 0.858 | OCC(O)c1ccc(O)c(O)c1 (stereo not drawn) [3,4-dihydroxyphenylglycol] |
|  | 0.524 | CC(C)(N)C(=O)O [2-aminoisobutyric acid] |
|  | 3.53 | O=C(O)/C=C/c1cccc(O)c1 [trans-3-hydroxycinnamic acid] |
|  | 3.44 | CC(O)CC(=O)O (stereo not drawn) [3-hydroxybutyric acid] |
|  | 3.1 | CC(C)C1NC(=O)C2CCCN2C1=O (stereo not drawn) [cyclo-(pro-val)] |

| LC retention time [1] [min] | LC retention time [2] [min] | SMILES |
| --- | --- | --- |
|  | 5.51 | CCC=CCC=CCC=CCC=CCC=CCC=CCCC(=O)OC(COC(=O)CCCCCCCCCCCCCCCCC)COP(=O)([O-])OCC[N+](C)(C)C (stereo not drawn) [pc(18:0/22:6)] |
|  | 1.55 | Cn1c(=O)[nH]c(=O)c2c1[nH]c(=O)n2C [3,7-dimethyluric acid] |
|  | 0.491 | NCCCC(=O)O [gamma-aminobutyric acid] |
|  | 0.543 | C[N+]1(C)CCCC1C(=O)[O-] (stereo not drawn) [proline betaine] |
|  | 2.74 | CC(C)CC(=O)NCC(=O)O [isovalerylglycine] |
|  | 2.54 | CC(C)C(O)C(=O)O (stereo not drawn) [2-hydroxyisovaleric acid] |
|  | 0.91 | O=C(O)C1OC(Oc2ccc(O)cc2)C(O)C(O)C1O (stereo not drawn) [hydroquinone-glucuronide] |
|  | 3.46 | Cc1cc(C(=O)O)ccc1O [4-hydroxy-3-methylbenzoic acid] |
|  | 3.92 | CCCCCCCC(=O)OC1OC(C(=O)O)C(O)C(O)C1O (stereo not drawn) [octanoic acid glucuronide] |
|  | 3.42 | O=C(OC1OC(C(=O)O)C(O)C(O)C1O)c1c[nH]c2ccccc12 (stereo not drawn) [indole-3-carboxylic acid glucuronide] |
|  | 0.546 | CC(C)C(N)C(=O)O (stereo not drawn) [valine] |
|  | 0.437 | NCCC(=O)NC(Cc1cnc[nH]1)C(=O)O (stereo not drawn) [carnosine] |
|  | 2.92 | O=C(O)Cc1c[nH]c2ccc(O)cc12 [5-hydroxyindole-acetic acid] |
|  | 2.23 | CCC(C)(O)C(=O)O (stereo not drawn) [2-hydroxy-2-methylbutyric acid] |
|  | 3.56 | O=C(O)CNC(=O)C=Cc1c[nH]c2ccccc12 [indole-3-acryloylglycine] |
|  | 1.92 | CC(C)C(=O)C(=O)O [alpha-ketoisovaleric acid] |
|  | 2.67 | NC(CC(=O)O)C(=O)NC(Cc1ccccc1)C(=O)O (stereo not drawn) [asp-phe] |
|  | 0.491 | NC(=O)NC(NC(N)=O)C(=O)O [allantoic acid] |
|  | 0.468 | C[N+](C)(C)[O-] [TMAO] |
|  | 3.74 | O=c1c(O)c(-c2ccc(O)c(O)c2)oc2cc(O)cc(O)c12 [quercetin] |
|  | 1.08 | Cn1c(=O)[nH]c2[nH]c(=O)[nH]c(=O)c21 [7-methyluric acid] |
|  | 0.564 | CNCC(O)c1ccc(O)c(O)c1 (stereo not drawn) [epinephrine] |
|  | 0.666 | CC(=O)Nc1c(N)[nH]c(=O)n(C)c1=O [aamu] |
|  | 3.03 | c1coc(CNc2ncnc3nc[nH]c23)c1 [kinetin] |
|  | 0.561 | O=C1OC(C(O)CO)C(O)=C1O (stereo not drawn) [Ascorbic acid] |

| SMILES | LC retention time [1] [min] | LC retention time [2] [min] |
| --- | --- | --- |
| O=C(O)Cc1ccccc1 [Phenylacetic acid] | 1.19 | 0.861 |
| NCCc1c[nH]c2ccccc12 [tryptamine hydrochloride] | 1.53 | 2.65 |
